Test results as given in paper PMC12220853, “Natural aminosterols inhibit NMDA receptors with low nanomolar potency” (The Febs Journal, 2025).

Molecular target: T1, N-methyl-D-aspartate receptor (NMDAR), native in hippocampal neurons (Rattus norvegicus, UniProt P35439+Q00959+Q00960)
T1 construct: gene Grin1; native heteromeric receptor in primary rat hippocampal neurons; with GluN2A / GluN2B (native mixture, mostly GluN1/2A/2B)
Assay: whole-cell patch clamp of NMDA-activated currents in primary rat hippocampal neurons ([…] NMDA, […] glycine)
Type: cell-based

T1 sequence (Q00959 23-1464, other chains not shown): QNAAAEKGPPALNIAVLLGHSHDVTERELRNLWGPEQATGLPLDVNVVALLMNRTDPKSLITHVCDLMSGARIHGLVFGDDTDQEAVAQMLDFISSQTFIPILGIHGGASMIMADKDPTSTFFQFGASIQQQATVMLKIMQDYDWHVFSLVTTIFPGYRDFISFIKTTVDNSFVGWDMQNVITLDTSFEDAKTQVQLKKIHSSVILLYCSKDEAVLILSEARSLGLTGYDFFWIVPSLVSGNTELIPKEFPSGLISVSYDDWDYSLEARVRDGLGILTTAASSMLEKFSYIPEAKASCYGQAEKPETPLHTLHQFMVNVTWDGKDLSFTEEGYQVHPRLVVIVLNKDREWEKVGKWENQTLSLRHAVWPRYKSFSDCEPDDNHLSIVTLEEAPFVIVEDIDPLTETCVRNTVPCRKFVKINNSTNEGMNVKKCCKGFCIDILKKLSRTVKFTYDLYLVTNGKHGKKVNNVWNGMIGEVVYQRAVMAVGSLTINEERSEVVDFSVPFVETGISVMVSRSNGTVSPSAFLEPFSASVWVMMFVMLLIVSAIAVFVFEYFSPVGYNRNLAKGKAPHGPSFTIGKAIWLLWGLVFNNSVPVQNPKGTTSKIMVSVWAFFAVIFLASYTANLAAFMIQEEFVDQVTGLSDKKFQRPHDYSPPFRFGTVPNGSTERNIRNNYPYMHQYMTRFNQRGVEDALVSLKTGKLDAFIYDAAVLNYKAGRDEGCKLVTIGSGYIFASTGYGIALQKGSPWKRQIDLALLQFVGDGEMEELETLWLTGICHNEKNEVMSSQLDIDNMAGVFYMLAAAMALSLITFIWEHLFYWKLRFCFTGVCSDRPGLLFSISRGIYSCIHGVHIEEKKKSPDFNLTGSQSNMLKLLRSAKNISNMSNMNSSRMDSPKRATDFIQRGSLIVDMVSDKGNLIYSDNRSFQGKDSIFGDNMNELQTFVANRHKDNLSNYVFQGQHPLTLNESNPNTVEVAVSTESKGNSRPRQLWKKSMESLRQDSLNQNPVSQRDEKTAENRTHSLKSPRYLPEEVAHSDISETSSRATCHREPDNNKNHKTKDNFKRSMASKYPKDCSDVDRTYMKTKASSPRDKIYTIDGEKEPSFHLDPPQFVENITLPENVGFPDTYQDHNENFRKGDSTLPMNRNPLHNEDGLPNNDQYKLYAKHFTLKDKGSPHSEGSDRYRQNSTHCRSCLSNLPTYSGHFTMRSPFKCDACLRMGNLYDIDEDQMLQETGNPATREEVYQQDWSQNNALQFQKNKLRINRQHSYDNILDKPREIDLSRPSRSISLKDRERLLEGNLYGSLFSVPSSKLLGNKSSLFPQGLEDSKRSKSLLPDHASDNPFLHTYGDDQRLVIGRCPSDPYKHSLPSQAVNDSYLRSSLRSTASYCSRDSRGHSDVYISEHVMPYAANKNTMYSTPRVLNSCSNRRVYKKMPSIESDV
T1 sequence (Q00960 27-1482, other chains not shown): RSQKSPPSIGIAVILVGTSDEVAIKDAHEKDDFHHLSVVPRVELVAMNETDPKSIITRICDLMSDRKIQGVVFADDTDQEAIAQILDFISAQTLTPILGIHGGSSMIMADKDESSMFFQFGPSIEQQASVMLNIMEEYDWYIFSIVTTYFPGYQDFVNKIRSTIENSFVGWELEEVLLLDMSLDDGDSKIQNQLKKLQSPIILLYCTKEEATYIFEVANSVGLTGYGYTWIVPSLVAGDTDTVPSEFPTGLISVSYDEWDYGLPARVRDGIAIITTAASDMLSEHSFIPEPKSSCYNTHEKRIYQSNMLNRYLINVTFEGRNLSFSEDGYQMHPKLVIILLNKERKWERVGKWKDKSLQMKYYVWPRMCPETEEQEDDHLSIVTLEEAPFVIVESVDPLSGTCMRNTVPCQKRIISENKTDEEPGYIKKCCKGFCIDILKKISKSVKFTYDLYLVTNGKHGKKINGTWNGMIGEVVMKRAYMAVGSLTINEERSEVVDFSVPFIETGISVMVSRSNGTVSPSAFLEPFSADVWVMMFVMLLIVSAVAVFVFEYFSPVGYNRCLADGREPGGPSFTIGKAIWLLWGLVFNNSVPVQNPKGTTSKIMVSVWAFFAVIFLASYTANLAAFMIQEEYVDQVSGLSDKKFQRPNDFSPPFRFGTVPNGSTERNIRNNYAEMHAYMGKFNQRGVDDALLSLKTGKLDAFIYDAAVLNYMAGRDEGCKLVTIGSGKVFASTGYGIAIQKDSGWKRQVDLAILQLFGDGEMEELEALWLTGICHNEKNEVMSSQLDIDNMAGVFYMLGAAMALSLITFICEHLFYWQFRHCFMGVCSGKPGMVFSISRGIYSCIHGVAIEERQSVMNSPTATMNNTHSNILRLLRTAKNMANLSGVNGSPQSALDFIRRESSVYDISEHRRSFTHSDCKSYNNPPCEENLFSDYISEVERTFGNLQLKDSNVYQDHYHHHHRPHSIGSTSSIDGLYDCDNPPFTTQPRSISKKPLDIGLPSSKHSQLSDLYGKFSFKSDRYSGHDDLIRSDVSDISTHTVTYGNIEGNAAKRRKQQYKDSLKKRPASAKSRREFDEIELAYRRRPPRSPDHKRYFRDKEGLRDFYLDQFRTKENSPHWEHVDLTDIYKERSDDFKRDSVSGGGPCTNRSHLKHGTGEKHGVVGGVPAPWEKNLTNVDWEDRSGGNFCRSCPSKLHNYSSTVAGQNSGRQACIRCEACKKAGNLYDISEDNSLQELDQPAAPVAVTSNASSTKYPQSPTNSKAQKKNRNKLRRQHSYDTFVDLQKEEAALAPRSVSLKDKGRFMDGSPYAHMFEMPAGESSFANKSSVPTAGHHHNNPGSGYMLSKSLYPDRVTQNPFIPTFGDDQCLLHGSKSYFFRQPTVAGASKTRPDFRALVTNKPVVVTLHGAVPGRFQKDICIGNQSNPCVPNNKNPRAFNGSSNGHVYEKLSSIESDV

For `CC(C)[C@@H](CC[C@@H](C)[C@H]1CC[C@H]2[C@@H]3[C@H](O)C[C@H]4C[C@@H](NCCCNCCCCNCCCN)CC[C@]4(C)[C@H]3CC[C@]12C)OS(=O)(=O)O` [TRO, trodusquemine], the IC50 was 5.1 nM.
